Patent US20200031811A1, “SUBSTITUTED MONO- AND POLYAZANAPHTHALENE DERIVATIVES AND THEIR USE” (Basilea Pharmaceutica International AG, priority 2015, published 2020)

Key:
[1] = tested on: human pancreatic cancer cell line MiaPaCa2 (ATCC CRL-1420); assay: Cell growth assay (CellTiterGlo, 72 hours); assay type: cell-based; details: for IC50: MIA PaCa-2, MiaPaCa2 cells, 72 hours, read-out: IC50 MiaPaCa; for inhibition at 100 µM: MIA PaCa-2, at 100 μM, read-out: Inhibition of MiaPaCa growth at indicated concentration
Outline: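 MiaPaCa2 cells (10^3/well) seeded in supplemented DMEM overnight, then exposed in quadruplicate to compound at 100 down to 0.1 μM for 72 h at 37° C. Growth read by CellTiterGlo luminescence, medium-only background subtracted, normalised to untreated cells; IC50 = concentration reducing growth to 50%.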

[2] = target: T1, MNK1 (Homo sapiens, UniProt Q9BUB5); assay: MNK inhibition assay (Z-Lyte kinase assay, Ser/Thr 7 peptide); assay type: biochemical; details: for IC50: recombinant GST-MNK1, 3 hours at 31° C.
T1 construct: purchased Life Technologies or Carna Biosciences PV6023 or 02-145; host or cells: baculovirus infected insect cells
Outline: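 Recombinant GST-MNK1 from baculovirus-infected insect cells, Z-Lyte Ser/Thr 7 peptide, enzyme set for ~30% phosphorylation in buffer-only wells; 3 hours at 31° C. Compounds at 50–10000 nM (potent ones down to 0.5 nM), at least duplicate. IC50 from % substrate phosphorylation versus buffer-only wells, fluorescence read-out.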

[3] = read-out: Inhibition of MNK1 activity at indicated concentration

T1 sequence (Q9BUB5 whole entry): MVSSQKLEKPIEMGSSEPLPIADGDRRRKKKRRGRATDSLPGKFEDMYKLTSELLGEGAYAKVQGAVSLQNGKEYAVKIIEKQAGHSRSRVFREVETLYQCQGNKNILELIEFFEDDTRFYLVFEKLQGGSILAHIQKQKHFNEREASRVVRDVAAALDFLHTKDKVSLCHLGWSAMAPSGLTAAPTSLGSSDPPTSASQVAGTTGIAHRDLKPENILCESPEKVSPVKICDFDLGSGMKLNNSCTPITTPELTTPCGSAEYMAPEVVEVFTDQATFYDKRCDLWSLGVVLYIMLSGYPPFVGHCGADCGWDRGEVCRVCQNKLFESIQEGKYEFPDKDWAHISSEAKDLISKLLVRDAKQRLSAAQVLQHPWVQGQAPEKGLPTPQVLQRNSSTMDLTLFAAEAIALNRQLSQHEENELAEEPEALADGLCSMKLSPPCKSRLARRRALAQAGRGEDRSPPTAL

SMILES | IC50 [1] [µM] | IC50 [2] [µM] | inhibition at 1 µM [2, 3] [%] | inhibition at 10 µM ([2]; at 10 μM, read-out: Inhibition of MNK1 activity at indicated concentration) [%] | inhibition at 100 µM [1] [%]
NC1CCN(Cc2ccc3cncc(-c4ccc(NC(=O)Nc5ccncc5)cc4)c3c2)CC1 [Example 115] |  | 0.49 |  |  | 52
Nc1cc[n+](Cc2ccc3cncc(-c4cc5ccccc5o4)c3c2)cc1O [Example 59] | 47 | 0.09 |  |  | 
Nc1ccc(NCc2ccc3cncc(-c4cc5ccccc5o4)c3c2)cn1 [Example 129] | 23.1 | 0.143 |  |  | 
NCCCCNCc1ccc2cncc(-c3ccc(O)cc3)c2c1 [Example 35, 4-[6-[(4-Aminobutylamino)methyl]-4-isoquinolyl]phenol] | 11.8 |  | 56 |  | 
NCCCOCc1ccc2cncc(-c3cc4ccccc4o3)c2c1 [Example 105, 3-[[4-(Benzofuran-2-yl)-6-isoquinolyl]methoxy]propan-1-amine] | 12.8 | 0.089 |  |  | 
Nc1ccc(-c2cncc3ccc(CN4CCC(N)CC4)cc23)cc1 [Example 2] | 34.6 | 0.093 |  |  | 
CN1CCN(Cc2ccc3cncc(-c4cc5ccccc5o4)c3c2)CC1 [Example 47] | 10.9 | 1.12 |  |  | 
NCCNCc1ccc2cncc(-c3ccc(O)cc3)c2c1 [Example 24] | 45.5 | 0.926 |  |  | 
NCc1cccc(NCc2ccc3cncc(-c4cc5ccccc5o4)c3c2)c1 [Example 53] | 18.6 | 0.58 |  |  | 
NC1CCN(Cc2ccc3cncc(-c4ccc(Cl)cc4)c3c2)CC1 [Example 9] | 10.8 | 0.258 |  |  | 
NC1CCN(Cc2ccc3cncc(-c4cccc(Cl)c4)c3c2)CC1 [Example 10] | 11.7 | 0.325 |  |  | 
NC(=O)c1cccc(-c2cncc3ccc(CN4CCC(N)CC4)cc23)c1 [Example 21] |  |  | 49 |  | 64
NC1CCN(Cc2ccc3cncc(-c4ccc5occc5c4)c3c2)CC1 [Example 172] | 11.9 | 0.27 |  |  | 
NCc1ccc(NCc2ccc3cncc(-c4cc5ccccc5o4)c3c2)cc1 [Example 52] | 14.1 | 0.163 |  |  | 
NCCCOCc1ccc2cncc(-c3ccc(O)cc3)c2c1 [Example 44, 4-[6-(3-Aminopropoxymethyl)-4-isoquinolyl]phenol] | 20.6 | 0.061 |  |  | 
CN(CCCN)Cc1ccc2cncc(-c3ccc(O)cc3)c2c1 [Example 36] | 20.2 | 0.099 |  |  | 
COc1ccc(-c2cncc3ccc(CN4CCC(N)CC4)cc23)cn1 [Example 201] | 25.2 | 0.803 |  |  | 
O=C1CN(Cc2ccc3cncc(-c4ccc(O)cc4)c3c2)CCN1 [Example 22, 4-[[4-(4-Hydroxyphenyl)-6-isoquinolyl]methyl]piperazin-2-one] |  | 0.662 |  |  | 69

The next lines start with results.

IC50 [1] [µM] | IC50 [2] [µM] | inhibition at 1 µM [2, 3] [%] | inhibition at 10 µM ([2]; at 10 μM, read-out: Inhibition of MNK1 activity at indicated concentration) [%] | SMILES | inhibition at 100 µM [1] [%]
8.64 | 0.306 |  |  | NCc1ccc(-c2cncc3ccc(CN4CCC(N)CC4)cc23)cc1 [Example 183] | 
4.29 | 0.288 |  |  | CO[C@@H]1CN(Cc2ccc3cncc(-c4cc5ccccc5o4)c3c2)CC[C@H]1N [Example 271] | 
3.2 | 0.211 |  |  | COc1cc(O[C@H]2CC[C@H](N)CC2)cc2c(-c3cc4ccccc4o3)cnc(N)c12 [Example 323, trans-6-(4-Aminocyclohexoxy)-4-(benzofuran-2-yl)-8-methoxy-isoquinolin-1-amine] | 
5.73 | 0.347 |  |  | COc1cc(CN2CCC(N)CC2)cc2c(-c3ccc(F)c(F)c3)cncc12 [Example 243] | 
9.03 | 0.141 |  |  | N[C@@H]1CCN(Cc2ccc3cncc(-c4cc5ccccc5o4)c3c2)C[C@@H]1O [Example 269, (3S,4R/3R,4S)-4-Amino-1-[[4-(benzofuran-2-yl)-6-isoquinolyl]methyl]piperidin-3-ol] | 
4.63 | 0.152 |  |  | COc1cc2cncc(-c3cc4ccccc4o3)c2cc1CN1CCC(N)CC1 [Example 282, 1-[[4-(Benzofuran-2-yl)-7-methoxy-6-isoquinolyl]methyl]piperidin-4-amine] | 
1.75 | 0.058 |  |  | N[C@H]1CC[C@H](Nc2ccc3cncc(-c4cc5ccccc5o4)c3c2)CC1 [Example 148, 4-(Benzofuran-2-yl)-N-(4-(trans)aminocyclohexyl)isoquinolin-6-amine] | 
1.87 | 0.01 |  |  | N[C@H]1CC[C@H](Nc2cc3c(-c4cc5ccccc5o4)cncc3cc2Cl)CC1 [Example 140, N4-[4-(Benzofuran-2-yl)-7-chloro-6-isoquinolyl]cyclohexane-1,4-diamine] | 
2.19 | 0.484 |  |  | NC1CCN(Cc2ccc3cncc(-c4ccc(NC(=O)Nc5ccccc5)cc4)c3c2)CC1 [Example 31, 1-[4-[6-[(4-Amino-1-piperidyl)methyl]-4-isoquinolyl]phenyl]-3-phenyl-urea] | 
1.22 | 0.216 |  |  | Nc1ncc(-c2cc3ccccc3o2)c2cc(CN3CCC(N)CC3)cc(Cl)c12 [Example 256, 6-[(4-Amino-1-piperidyl)methyl]-4-(benzofuran-2-yl)-8-chloro-isoquinolin-1-amine] | 
1.83 | 0.014 |  |  | Nc1cc[n+](Cc2ccc3cncc(-c4cc5ccccc5o4)c3c2)cc1 [Example 55] | 
4.01 |  |  | 51 | NCCNc1ccc2cncc(-c3cc4ccccc4o3)c2c1 [Example 100, N′-[4-(Benzofuran-2-yl)-6-isoquinolyl]ethane-1,2-diamine] | 
2.06 | 0.282 |  |  | Nc1ncc(-c2cc3ccccc3o2)c2cc(N[C@H]3CC[C@H](N)CC3)cc(Cl)c12 [Example 313] | 
3.2 | 0.1 |  |  | NC1CCN(Cc2cc(Cl)c3cncc(-c4ccco4)c3c2)CC1 [Example 239] | 
5.34 | 0.453 |  |  | COc1cc(CN2CCC(N)CC2)cc2c(-c3ccc(F)c(F)c3)cnc(N)c12 [Example 296] | 
7.88 | 0.05 |  |  | N[C@H]1CC[C@@H](C(=O)Nc2ccc3cncc(-c4cc5ccccc5o4)c3c2)CC1 [Example 157] | 
7 | 1.05 |  |  | NCCOc1ccc2cncc(-c3cc4ccccc4o3)c2c1 [Example 102, 2-[[4-(Benzofuran-2-yl)-6-isoquinolyl]oxy]ethanamine] | 
3.5 | 0.131 |  |  | Nc1ncc(-c2cc3ccccc3o2)c2cc(CN3CCC(N)CC3)ccc12 [Example 153, 6-[(4-Amino-1-piperidyl)methyl]-4-(benzofuran-2-yl)isoquinolin-1-amine] | 
2.85 | 0.015 |  |  | Nc1cc[n+](Cc2ccc3cncc(-c4cc5ccccc5o4)c3c2)c2ccccc12 [Example 54, 1-[[4-(Benzofuran-2-yl)-6-isoquinolyl]methyl]quinolin-1-ium-4-amine] | 
2.56 | 0.388 |  |  | NC1CCN(Cc2ccc3cncc(-c4ccc(NC(=O)Nc5ccccn5)cc4)c3c2)CC1 [Example 119] | 
8.38 | 1.73 |  |  | CN(C)CCOc1ccc2cncc(-c3cc4ccccc4o3)c2c1 [Example 95, 2-[[4-(Benzofuran-2-yl)-6-isoquinolyl]oxy]-N,N-dimethyl-ethanamine] | 
4.61 | 1.89 |  |  | NC1CCN(Cc2ccc3nncc(-c4cc5ccccc5o4)c3c2)CC1 [Example 144, 1-[[4-(Benzofuran-2-yl)cinnolin-6-yl]methyl]piperidin-4-amine] | 
9.86 | 1.39 |  |  | NC1CCN(Cc2ccc3cncc(-c4ccc(Cl)cc4Cl)c3c2)CC1 [Example 197] | 
